Values of other authors, collected in publication PMC5189927 (Molecular Psychiatry, 2014).
Structures can show the parent of a compound that is named as a salt. Each block holds one molecule with its values, some of them ahead of it.

Legend:
glucocerebrosidase [1] = settings: healthy volunteers
glucocerebrosidase [2] = test system: glucocerebrosidase
α-galactosidase A [3] = settings: healthy volunteers
α-galactosidase A [4] = settings: Fabry patients with amenable mutations, phase 3, 12 months of treatment
β-hex A = settings: phase 1/2, Tay–Sachs and Sandhoff patients

Increase in wild-type glucocerebrosidase levels (glucocerebrosidase [1]): two- to threefold
SMILES: OC[C@H]1CNC[C@@H](O)[C@@H]1O [isofagomine, isofagomine tartrate]
Glucocerebrosidase levels in peripheral blood mononuclear cells (glucocerebrosidase [2]; healthy volunteers (phase 1) and type I Gaucher patients (phase 2)): significantly increased
Gaucher patients with clinically meaningful end points (glucocerebrosidase [2]; phase 2, doses and dosing regimens assessed): 1 of 18

Increase in wild-type α-galactosidase A levels (α-galactosidase A [3]): two- to threefold
SMILES: OC[C@H]1NC[C@H](O)[C@@H](O)[C@H]1O [migalastat, deoxygalactonojirimycin hydrochloride]
Levels of kidney interstitial capillary GL-3 (α-galactosidase A [4]): statistically significant reduction

SMILES: CCc1nc(N)nc(N)c1-c1ccc(Cl)cc1 [pyrimethamine, Pyrimethamine]
Side effects (β-hex A): severe side effects
β-hex A levels in patients (β-hex A): increased β-hex A levels for all eight patients
